Measurements as given in ChEMBL document CHEMBL5729737, “FGFR4 inhibitor, preparation method therefor, and applications thereof” (2023).

How the values were obtained:
[1] = molecular target: Fibroblast growth factor receptor 4 (Homo sapiens, UniProt P22455); experiment: 5) 10 μL of EDTA and a test solution comprising labeled antibody were added, and the plate was incubated for 1 hour at room temperature. […] 7) The inhibition rates were calculated according to the fluorescence signal values.
[2] = molecular target: Fibroblast growth factor receptor 1 (Homo sapiens, UniProt P11362); experiment: Enzymologic Experiment of FGFR1: In this experiment, the inhibitory effect of the compounds on FGFR1 kinase activity was tested by a fluorescence resonance energy transfer (TR-FRET) method, and the half maximal inhibitory concentration (IC50) of the compounds on the FGFR1 kinase activity was determined. 1) 1˜5 μL of FGFR1 enzyme solution was added to a 384-well plate, and the final concentration of the enzyme was 0.1˜5 nM. 2) 1˜5 μL of diluted solution in gradient of the compound was added. 3) 1˜5 μL of a substrate mixture containing substrate polypeptide with a final concentration of 5˜50 nM and ATP with a final concentration of 10˜200 μM was added. 4) The mixture was incubated for 0.5˜3 hours at room temperature. 5) 10 μL of EDTA and a test solution comprising labeled antibody were added, and the plate was incubated for 1 hour at room temperature. 6) The fluorescence signal values of each plate were determined by a microplate reader at 665 nm.7) The inhibition rates were calculated according to the fluorescence signal values.
Sequence of Fibroblast growth factor receptor 1 (P11362 whole entry): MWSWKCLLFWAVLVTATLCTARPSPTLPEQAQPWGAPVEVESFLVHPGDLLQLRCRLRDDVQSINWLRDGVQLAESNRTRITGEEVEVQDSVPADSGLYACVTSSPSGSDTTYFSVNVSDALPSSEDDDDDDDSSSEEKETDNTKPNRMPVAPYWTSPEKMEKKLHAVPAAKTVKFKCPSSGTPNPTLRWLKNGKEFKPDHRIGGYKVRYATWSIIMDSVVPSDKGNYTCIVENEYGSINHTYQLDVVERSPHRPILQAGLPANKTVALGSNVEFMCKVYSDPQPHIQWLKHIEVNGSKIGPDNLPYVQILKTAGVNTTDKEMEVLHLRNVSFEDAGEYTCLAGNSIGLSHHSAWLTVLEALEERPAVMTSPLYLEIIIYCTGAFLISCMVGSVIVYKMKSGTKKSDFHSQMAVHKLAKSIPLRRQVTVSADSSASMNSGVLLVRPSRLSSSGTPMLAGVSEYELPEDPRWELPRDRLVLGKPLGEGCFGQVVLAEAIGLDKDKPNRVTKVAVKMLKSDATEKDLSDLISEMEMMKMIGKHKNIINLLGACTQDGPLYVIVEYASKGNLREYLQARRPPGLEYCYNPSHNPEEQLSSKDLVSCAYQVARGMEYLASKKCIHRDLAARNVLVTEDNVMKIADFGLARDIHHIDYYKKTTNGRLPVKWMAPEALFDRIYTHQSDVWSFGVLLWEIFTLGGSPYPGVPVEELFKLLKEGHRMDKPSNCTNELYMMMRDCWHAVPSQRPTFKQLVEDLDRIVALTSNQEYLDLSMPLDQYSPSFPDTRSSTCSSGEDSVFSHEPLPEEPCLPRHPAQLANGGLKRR

Sequence of Fibroblast growth factor receptor 4 (P22455 whole entry): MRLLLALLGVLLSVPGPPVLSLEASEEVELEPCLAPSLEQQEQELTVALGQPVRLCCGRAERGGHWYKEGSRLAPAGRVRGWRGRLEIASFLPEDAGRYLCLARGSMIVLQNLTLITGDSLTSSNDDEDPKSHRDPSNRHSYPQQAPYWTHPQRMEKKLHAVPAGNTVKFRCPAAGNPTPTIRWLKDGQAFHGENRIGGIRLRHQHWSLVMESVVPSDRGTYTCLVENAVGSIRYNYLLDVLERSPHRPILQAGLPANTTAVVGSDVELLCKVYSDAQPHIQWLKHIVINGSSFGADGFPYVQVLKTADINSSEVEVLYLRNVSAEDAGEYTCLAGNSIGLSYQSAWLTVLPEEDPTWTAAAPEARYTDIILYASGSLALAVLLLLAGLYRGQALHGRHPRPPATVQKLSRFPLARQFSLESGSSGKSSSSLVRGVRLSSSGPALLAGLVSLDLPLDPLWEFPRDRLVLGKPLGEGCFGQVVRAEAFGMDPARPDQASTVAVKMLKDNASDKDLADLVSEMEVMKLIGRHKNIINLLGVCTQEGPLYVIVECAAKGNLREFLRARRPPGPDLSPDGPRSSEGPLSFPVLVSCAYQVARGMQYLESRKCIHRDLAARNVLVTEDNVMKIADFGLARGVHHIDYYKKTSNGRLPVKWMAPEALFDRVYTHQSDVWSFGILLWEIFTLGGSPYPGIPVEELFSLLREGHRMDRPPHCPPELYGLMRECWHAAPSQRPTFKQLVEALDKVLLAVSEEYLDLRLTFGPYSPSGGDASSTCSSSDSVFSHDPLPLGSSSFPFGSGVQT

Row | Structure (SMILES) | IC50 [1] [µM] | IC50 [2] [µM]
1 | COC[C@@H](C)Nc1cc(NC(=O)N2CCCc3cc(CN4CCCCOC4=O)c(C=O)nc32)ncc1C#N | 0.00096 | –
2 | CO[C@@H]1CCCC1Nc1cc(NC(=O)N2CCCc3cc(CN4CCOCC4=O)c(C=O)nc32)ncc1C#N (stereo partly drawn) | – | > 10
3 | COCCNc1cc(NC(=O)N2CCCc3cc(CN4CCCCOC4=O)c(C=O)nc32)ncc1C#N | – | > 10
